According to ChEMBL document CHEMBL1201861, “Genomics of Drug Sensitity in Cancer screening data, Wellcome Trust Sanger Institute”:

How the values were obtained:
Assay in all cases: cells
EW-22 = format: functional, cell-based, Homo sapiens; conditions: Homo sapiens, EW-22;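 note: growth inhibition of the EW-22 cell line, measured with a cell viability readout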
Description: SANGER: Inhibition of human EW-22 cell growth in a cell viability assay.

M059J = format: functional, cell-based, Homo sapiens;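 note: growth inhibition of M059J cells, read out with a cell viability assay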
Description: SANGER: Inhibition of human M059J cell growth in a cell viability assay.

KOSC-2 = format: functional, cell-based, Homo sapiens;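 note: growth inhibition of KOSC-2 cells, read out by a cell viability assay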
Description: SANGER: Inhibition of human KOSC-2 cell growth in a cell viability assay.

GMS-10 = format: functional, cell-based, Homo sapiens;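 note: growth inhibition of GMS-10 cells, read out as cell viability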
Description: SANGER: Inhibition of human GMS-10 cell growth in a cell viability assay.

NCI-H2291 = format: functional, cell-based, Homo sapiens; conditions: Homo sapiens, NCI-H2291
Description: SANGER: Inhibition of human NCI-H2291 cell growth in a cell viability assay.

SK-MEL3 = format: functional, cell-based, Homo sapiens, SK-MEL-3;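 note: growth inhibition of human SK-MEL-3 cells, read out with a cell viability assay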
Description: SANGER: Inhibition of human SK-MEL-3 cell growth in a cell viability assay.

HCC1419 = format: functional, cell-based, Homo sapiens;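 note: growth inhibition of human HCC1419 cells, read out as cell viability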
Description: SANGER: Inhibition of human HCC1419 cell growth in a cell viability assay.

769-P = format: functional, cell-based, Homo sapiens
Description: SANGER: Inhibition of human 769-P cell growth in a cell viability assay.

RMG-I = format: functional, cell-based, Homo sapiens;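 note: growth inhibition of human RMG-I cells, read out with a cell viability assay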
Description: SANGER: Inhibition of human RMG-I cell growth in a cell viability assay.

CAL-85-1 = format: functional, cell-based, Homo sapiens;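 note: growth inhibition of human CAL-85-1 cells, read out with a cell viability assay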
Description: SANGER: Inhibition of human CAL-85-1 cell growth in a cell viability assay.

MKN-7 = format: functional, cell-based, Homo sapiens;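 note: growth inhibition of MKN-7 cells, read out with a cell viability assay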
Description: SANGER: Inhibition of human MKN7 cell growth in a cell viability assay.

BXPC-3 = format: functional, cell-based, Homo sapiens;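 note: growth inhibition of human BxPC-3 cells, read out by a cell viability assay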
Description: SANGER: Inhibition of human BxPC-3 cell growth in a cell viability assay.

COR-L105 = format: functional, cell-based, Homo sapiens;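 note: cell growth inhibition determined with a viability assay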
Description: SANGER: Inhibition of human COR-L105 cell growth in a cell viability assay.

COLO-741 = format: functional, cell-based, Homo sapiens
Description: SANGER: Inhibition of human COLO-741 cell growth in a cell viability assay.

NCI-H1573 = format: functional, cell-based, Homo sapiens;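 note: growth inhibition of NCI-H1573 cells, read out with a cell viability assay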
Description: SANGER: Inhibition of human NCI-H1573 cell growth in a cell viability assay.

C32 = format: functional, cell-based, Homo sapiens;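 note: cell viability assay, with IC50 reflecting inhibition of C32 cell growth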
Description: SANGER: Inhibition of human C32 cell growth in a cell viability assay.

OAW-42 = format: functional, cell-based, Homo sapiens;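 note: growth inhibition of OAW-42 cells, read out with a cell viability assay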
Description: SANGER: Inhibition of human OAW-42 cell growth in a cell viability assay.

NCI-H1993 = format: functional, cell-based, Homo sapiens;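 note: growth inhibition of the cancer cell line, assessed with a cell viability assay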
Description: SANGER: Inhibition of human NCI-H1993 cell growth in a cell viability assay.

PANC-08-13 = format: functional, cell-based, Homo sapiens;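 note: cell growth inhibition, measured with a cell viability assay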
Description: SANGER: Inhibition of human PANC-08-13 cell growth in a cell viability assay.

RERF-LC-MS = format: functional, cell-based, Homo sapiens;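 note: growth inhibition of human RERF-LC-MS cells, read out by a cell viability assay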
Description: SANGER: Inhibition of human RERF-LC-MS cell growth in a cell viability assay.

U-118-MG = format: functional, cell-based, Homo sapiens
Description: SANGER: Inhibition of human U-118-MG cell growth in a cell viability assay.

GP5d = format: functional, cell-based, Homo sapiens;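 note: growth inhibition of human GP5d cells, read out with a cell viability assay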
Description: SANGER: Inhibition of human GP5d cell growth in a cell viability assay.

HOS = format: functional, cell-based, Homo sapiens;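 note: growth inhibition of human HOS cells, read out with a cell viability assay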
Description: SANGER: Inhibition of human HOS cell growth in a cell viability assay.

KYSE-410 = format: functional, cell-based, Homo sapiens;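 note: growth inhibition of KYSE-410 cells, measured through a cell viability readout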
Description: SANGER: Inhibition of human KYSE-410 cell growth in a cell viability assay.

Panc1005 = format: functional, cell-based, Homo sapiens;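 note: growth inhibition of human PANC-10-05 cells, measured by a cell viability assay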
Description: SANGER: Inhibition of human PANC-10-05 cell growth in a cell viability assay.

SAS = format: functional, cell-based, Homo sapiens;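 note: growth inhibition of SAS cells, read out with a cell viability assay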
Description: SANGER: Inhibition of human SAS cell growth in a cell viability assay.

SNU-449 = format: functional, cell-based, Homo sapiens
Description: SANGER: Inhibition of human SNU-449 cell growth in a cell viability assay.

MDA-MB-231 = format: functional, cell-based, Homo sapiens
Description: SANGER: Inhibition of human MDA-MB-231 cell growth in a cell viability assay.

NCI-H1563 = format: functional, cell-based, Homo sapiens;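 note: growth inhibition of human NCI-H1563 cells, read out with a cell viability assay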
Description: SANGER: Inhibition of human NCI-H1563 cell growth in a cell viability assay.

NCI-H1793 = format: functional, cell-based, Homo sapiens;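 note: cell growth inhibition, read out by a cell viability assay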
Description: SANGER: Inhibition of human NCI-H1793 cell growth in a cell viability assay.

EFM-19 = format: functional, cell-based, Homo sapiens;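 note: growth inhibition of human EFM-19 cells, measured in a cell viability assay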
Description: SANGER: Inhibition of human EFM-19 cell growth in a cell viability assay.

DK-MG = format: functional, cell-based, Homo sapiens;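 note: growth inhibition of DK-MG cells, read out with a cell viability assay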
Description: SANGER: Inhibition of human DK-MG cell growth in a cell viability assay.

KYSE-150 cell line = format: functional, cell-based, Homo sapiens;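 note: growth inhibition of human KYSE-150 cells, read out with a cell viability assay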
Description: SANGER: Inhibition of human KYSE-150 cell growth in a cell viability assay.

D-423MG = format: functional, cell-based, Homo sapiens; conditions: Homo sapiens, D-423MG
Description: SANGER: Inhibition of human D-423MG cell growth in a cell viability assay.

IMR-5 = format: functional, cell-based, Homo sapiens; conditions: imr-5;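 note: growth inhibition of human IMR-5 cells, read out with a cell viability assay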
Description: SANGER: Inhibition of human IMR-5 cell growth in a cell viability assay.

NCI-H1963 = format: functional, cell-based, Homo sapiens; conditions: nci-h1963;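 note: cell growth inhibition of the human line, determined with a cell viability assay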
Description: SANGER: Inhibition of human NCI-H1963 cell growth in a cell viability assay.

SK-MEL-28 = format: functional, cell-based, Homo sapiens; conditions: sk-mel-28;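 note: growth inhibition of human SK-MEL-28 cells, read out with a cell viability assay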
Description: SANGER: Inhibition of human SK-MEL-28 cell growth in a cell viability assay.

HMV-2 cell line = format: functional, cell-based, Homo sapiens; conditions: hmv-2;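 note: growth inhibition of HMV-II cells, read out with a cell viability assay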
Description: SANGER: Inhibition of human HMV-II cell growth in a cell viability assay.

UACC-812 = format: functional, cell-based, Homo sapiens; conditions: uacc-812
Description: SANGER: Inhibition of human UACC-812 cell growth in a cell viability assay.

LC4-1 = format: functional, cell-based, Homo sapiens; conditions: lc4-1;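 note: growth inhibition of LC4-1 cells, read out with a cell viability assay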
Description: SANGER: Inhibition of human LC4-1 cell growth in a cell viability assay.

K052 = format: functional, cell-based, Homo sapiens; conditions: k052;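 note: Read-out from a cell viability assay, IC50 reflecting suppression of K052 cell growth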
Description: SANGER: Inhibition of human K052 cell growth in a cell viability assay.

CPC-N = format: functional, cell-based, Homo sapiens; conditions: cpc-n;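 note: growth inhibition of CPC-N cells, with a cell viability assay as the readout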
Description: SANGER: Inhibition of human CPC-N cell growth in a cell viability assay.

SR = format: functional, cell-based, Homo sapiens; conditions: sr
Description: SANGER: Inhibition of human SR cell growth in a cell viability assay.

HSC-4 = format: functional, cell-based, Homo sapiens; conditions: hsc-4;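 note: growth inhibition of human HSC-4 cells, read out with a cell viability assay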
Description: SANGER: Inhibition of human HSC-4 cell growth in a cell viability assay.

D-542MG = format: functional, cell-based, Homo sapiens; conditions: d-542mg
Description: SANGER: Inhibition of human D-542MG cell growth in a cell viability assay.

Raji = format: functional, cell-based, Homo sapiens; conditions: raji;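 note: cell viability assay measuring inhibition of Raji cell growth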
Description: SANGER: Inhibition of human Raji cell growth in a cell viability assay.

MKN-1 = format: functional, cell-based, Homo sapiens; conditions: mkn-1;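 note: growth inhibition of human MKN1 cells, read out by a cell viability measurement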
Description: SANGER: Inhibition of human MKN1 cell growth in a cell viability assay.

`Cn1cnc2c(F)c(Nc3ccc(Br)cc3Cl)c(C(=O)NOCCO)cc21` [SELUMETINIB] was tested, and the IC50 (EW-22) was over 4 µM, the IC50 (M059J; Homo sapiens, M059J) was over 4 µM and the IC50 (KOSC-2; Homo sapiens, KOSC-2) was over 4 µM. It also gave an IC50 (GMS-10; Homo sapiens, GMS-10) of over 4 µM, an IC50 (NCI-H2291) of 0.762 µM and an IC50 (SK-MEL3; Homo sapiens, SK-MEL3) of 1.95 µM. The IC50 (HCC1419; Homo sapiens, HCC1419) was over 4 µM, the IC50 (769-P; Homo sapiens, 769-P) was 3.74 µM and the IC50 (RMG-I; Homo sapiens, RMG-I) was over 4 µM. The IC50 (CAL-85-1; Homo sapiens, CAL-85-1) was over 4 µM, the IC50 (MKN-7; Homo sapiens, MKN-7) was over 4 µM and the IC50 (BXPC-3; Homo sapiens, BXPC-3) was over 4 µM. The IC50 (COR-L105; Homo sapiens, COR-L105) was 3.13 µM, the IC50 (COLO-741; Homo sapiens, COLO-741) was 0.531 µM and the IC50 (NCI-H1573; Homo sapiens, NCI-H1573) was over 4 µM. For the same compound, the IC50 (C32; Homo sapiens, C32) was 0.0982 µM, the IC50 (OAW-42; Homo sapiens, OAW-42) was over 4 µM and the IC50 (NCI-H1993; Homo sapiens, NCI-H1993) was over 4 µM. It also gave an IC50 (PANC-08-13; Homo sapiens, PANC-08-13) of over 4 µM, an IC50 (RERF-LC-MS; Homo sapiens, RERF-LC-MS) of over 4 µM and an IC50 (U-118-MG; Homo sapiens, U-118-MG) of over 4 µM. The IC50 (GP5d; Homo sapiens, GP5d) was over 4 µM, the IC50 (HOS; Homo sapiens, HOS) was over 4 µM and the IC50 (KYSE-410; Homo sapiens, KYSE-410) was over 4 µM. The IC50 (Panc1005; Homo sapiens, Panc1005) was over 4 µM, the IC50 (SAS; Homo sapiens, SAS) was over 4 µM and the IC50 (SNU-449; Homo sapiens, SNU-449) was over 4 µM. The IC50 (MDA-MB-231; Homo sapiens, MDA-MB-231) was over 4 µM, the IC50 (NCI-H1563; Homo sapiens, NCI-H1563) was over 4 µM and the IC50 (NCI-H1793; Homo sapiens, NCI-H1793) was over 4 µM. It also gave an IC50 (EFM-19; Homo sapiens, EFM-19) of over 4 µM, an IC50 (DK-MG; Homo sapiens, DK-MG) of over 4 µM and an IC50 (KYSE-150 cell line; Homo sapiens, KYSE-150) of over 4 µM. It also gave an IC50 (D-423MG) of over 4 µM.

BLEOMYCIN showed an IC50 (IMR-5) of 0.137 µM, an IC50 (M059J; m059j) of 3.77 µM and an IC50 (KOSC-2; kosc-2) of 319 µM. For the same compound, the IC50 (GMS-10; gms-10) was 2110 µM, the IC50 (SK-MEL3; sk-mel-3) was 22.2 µM and the IC50 (NCI-H1963) was 193 µM. The IC50 (SK-MEL-28) was 1860 µM, the IC50 (HMV-2 cell line) was 0.0697 µM and the IC50 (HCC1419; hcc1419) was 253 µM. For the same compound, the IC50 (UACC-812) was 99.6 µM, the IC50 (769-P; 769-p) was 0.123 µM and the IC50 (RMG-I; rmg-i) was 0.000132 µM. It also gave an IC50 (CAL-85-1; cal-85-1) of 0.000178 µM, an IC50 (LC4-1) of 11.2 µM and an IC50 (MKN-7; mkn-7) of 66.5 µM. It also gave an IC50 (BXPC-3; bxpc-3) of 3.81 µM, an IC50 (K052) of 482 µM and an IC50 (COR-L105; cor-l105) of 7.37 µM. For the same compound, the IC50 (COLO-741; colo-741) was 16.4 µM, the IC50 (CPC-N) was 52.5 µM and the IC50 (NCI-H1573; nci-h1573) was 268 µM. It also gave an IC50 (C32; c32) of 471 µM, an IC50 (OAW-42; oaw-42) of 0.832 µM and an IC50 (NCI-H1993; nci-h1993) of 646 µM. The IC50 (PANC-08-13; panc-08-13) was 12.1 µM, the IC50 (SR) was 0.0297 µM and the IC50 (HSC-4) was 153 µM. The IC50 (RERF-LC-MS; rerf-lc-ms) was 48.7 µM, the IC50 (D-542MG) was 60.3 µM and the IC50 (U-118-MG; u-118-mg) was 65.7 µM. For the same compound, the IC50 (GP5d; gp5d) was 15.6 µM, the IC50 (HOS; hos) was 0.56 µM and the IC50 (KYSE-410; kyse-410) was 8.15 µM. For the same compound, the IC50 (Panc1005; panc1005) was 0.256 µM, the IC50 (SAS; sas) was 3.26 µM and the IC50 (SNU-449; snu-449) was 0.389 µM. It also gave an IC50 (MDA-MB-231; mda-mb-231) of 0.273 µM, an IC50 (Raji) of 1.85 µM and an IC50 (NCI-H1563; nci-h1563) of 20.6 µM. For the same compound, the IC50 (NCI-H1793; nci-h1793) was 27.2 µM, the IC50 (EFM-19; efm-19) was 0.0148 µM and the IC50 (DK-MG; dk-mg) was 85.8 µM. For the same compound, the IC50 (MKN-1) was 0.0796 µM and the IC50 (KYSE-150 cell line; kyse-150) was 0.00265 µM.
